According to ChEMBL document CHEMBL4732240, “Synthesis and antibacterial evaluation of new monobactams” (2021):
Converted amounts (≈) assume the structure as drawn.

Tests used:
Assay type in all cases: functional
Pseudomonas aeruginosa [1] = experiment: Antibacterial activity against Pseudomonas aeruginosa clinical isolate. assessed as reduction in bacterial growth by CLSI based broth microdilution method
Klebsiella pneumoniae [2] = experiment: Antibacterial activity against Klebsiella pneumoniae 700603 assessed as reduction in bacterial growth by CLSI based broth microdilution method
Klebsiella pneumoniae [3] = experiment: Antibacterial activity against Klebsiella pneumoniae clinical isolate assessed as reduction in bacterial growth by CLSI based broth microdilution method
Acinetobacter baumannii [4] = experiment: Antibacterial activity against Acinetobacter baumannii clinical isolate assessed as reduction in bacterial growth by CLSI based broth microdilution method
Enterobacter cloacae [5] = experiment: Antibacterial activity against Enterobacter cloacae 700323 assessed as reduction in bacterial growth by CLSI based broth microdilution method
Pseudomonas aeruginosa [6] = experiment: Antibacterial activity against Pseudomonas aeruginosa 9027 assessed as reduction in bacterial growth by CLSI based broth microdilution method
Escherichia coli [7] = experiment: Antibacterial activity against Escherichia coli clinical isolate assessed as reduction in bacterial growth by CLSI based broth microdilution method
Acinetobacter baumannii [8] = experiment: Antibacterial activity against Acinetobacter baumannii ATCC 19606 assessed as reduction in bacterial growth by CLSI based broth microdilution method; details: ATCC 19606 = CIP 70.34 = JCM 6841
Enterobacter cloacae [9] = experiment: Antibacterial activity against Enterobacter cloacae clinical isolate assessed as reduction in bacterial growth by CLSI based broth microdilution method
Escherichia coli [10] = experiment: Antibacterial activity against Escherichia coli ATCC 8739 assessed as reduction in bacterial growth by CLSI based broth microdilution method

Compound | MIC (Pseudomonas aeruginosa [1]) | MIC (Klebsiella pneumoniae [2]) | MIC (Klebsiella pneumoniae [3]) | MIC (Acinetobacter baumannii [4]) | MIC (Enterobacter cloacae [5]) | MIC (Pseudomonas aeruginosa [6]) | MIC (Escherichia coli [7]) | MIC (Acinetobacter baumannii [8]) | MIC (Enterobacter cloacae [9]) | MIC (Escherichia coli [10])
CC1(C)[C@H](NC(=O)/C(=N\O[C@@H](COc2ccc(NC(=O)N[C@@H]3CCCNC3)cc2)C(=O)O)c2csc(N)n2)C(=O)N1OS(=O)(=O)O | 8 µg/mL (≈ 11.7 µM) | 8 µg/mL (≈ 11.7 µM) | 0.5 µg/mL (≈ 0.73 µM) | 16 µg/mL (≈ 23.4 µM) | 16 µg/mL (≈ 23.4 µM) | 2 µg/mL (≈ 2.92 µM) | 0.5 µg/mL (≈ 0.73 µM) | 8 µg/mL (≈ 11.7 µM) | 2 µg/mL (≈ 2.92 µM) | 0.25 µg/mL (≈ 0.365 µM)
CC1(C)[C@H](NC(=O)/C(=N\O[C@@H](COc2ccc(NC(=O)NC3CCNCC3)cc2)C(=O)O)c2csc(N)n2)C(=O)N1OS(=O)(=O)O | 4 µg/mL (≈ 5.84 µM) | 32 µg/mL (≈ 46.7 µM) | 1 µg/mL (≈ 1.46 µM) | 64 µg/mL (≈ 93.5 µM) | 32 µg/mL (≈ 46.7 µM) | 2 µg/mL (≈ 2.92 µM) | 1 µg/mL (≈ 1.46 µM) | 16 µg/mL (≈ 23.4 µM) | 4 µg/mL (≈ 5.84 µM) | 0.25 µg/mL (≈ 0.365 µM)
CC1(C)[C@H](NC(=O)/C(=N\O[C@@H](COc2ccc(NC(=O)N[C@H]3CCCNC3)cc2)C(=O)O)c2csc(N)n2)C(=O)N1OS(=O)(=O)O | 2 µg/mL (≈ 2.92 µM) | 32 µg/mL (≈ 46.7 µM) | 1 µg/mL (≈ 1.46 µM) | 64 µg/mL (≈ 93.5 µM) | 32 µg/mL (≈ 46.7 µM) | 2 µg/mL (≈ 2.92 µM) | 8 µg/mL (≈ 11.7 µM) | 32 µg/mL (≈ 46.7 µM) | 4 µg/mL (≈ 5.84 µM) | 0.25 µg/mL (≈ 0.365 µM)
CC1(C)[C@H](NC(=O)/C(=N/O[C@@H](COc2ccc(NC(=O)N[C@H]3CCCNC3)cc2)C(=O)O)c2csc(N)n2)C(=O)N1OS(=O)(=O)O | 64 µg/mL (≈ 93.5 µM) | > 64 µg/mL | 32 µg/mL (≈ 46.7 µM) | > 64 µg/mL | 16 µg/mL (≈ 23.4 µM) | 32 µg/mL (≈ 46.7 µM) | 32 µg/mL (≈ 46.7 µM) | > 64 µg/mL | 64 µg/mL (≈ 93.5 µM) | 4 µg/mL (≈ 5.84 µM)
CC1(C)[C@H](NC(=O)/C(=N/O[C@@H](COc2ccc(NC(=O)N[C@@H]3CCCNC3)cc2)C(=O)O)c2csc(N)n2)C(=O)N1OS(=O)(=O)O | 64 µg/mL (≈ 93.5 µM) | > 64 µg/mL | 32 µg/mL (≈ 46.7 µM) | > 64 µg/mL | 32 µg/mL (≈ 46.7 µM) | 32 µg/mL (≈ 46.7 µM) | 32 µg/mL (≈ 46.7 µM) | > 64 µg/mL | 64 µg/mL (≈ 93.5 µM) | 8 µg/mL (≈ 11.7 µM)
CC1(C)[C@H](NC(=O)/C(=N/O[C@@H](COc2ccc(NC(=O)NC3CCNCC3)cc2)C(=O)O)c2csc(N)n2)C(=O)N1OS(=O)(=O)O | 16 µg/mL (≈ 23.4 µM) | > 64 µg/mL | 8 µg/mL (≈ 11.7 µM) | > 64 µg/mL | > 64 µg/mL | 16 µg/mL (≈ 23.4 µM) | 2 µg/mL (≈ 2.92 µM) | > 64 µg/mL | 32 µg/mL (≈ 46.7 µM) | 4 µg/mL (≈ 5.84 µM)
